{"source": "patent US10618937B2", "about": "“Method of treating Alzheimer's disease” (INDUSTRY-ACADEMIC COOPERATION FOUNDATION GYEONGSANG …, priority 2016, dated 2020)", "key": {"[1]": {"system": "APP-transfected SH-SY5Y cells", "assay": "MTT assay, cell viability of APP-transfected SH-SY5Y cells", "format": "cell-based, human", "conditions": "0.5, 1, 5, 10 and 20 μM, 4 hours, compared to the untreated APP group", "description": "The human APPswe/ind gene under the transcriptional control of the SV40 promoter/enhancer linked to the pCAX mammalian expression vector was obtained from addgene; The gene was deposited in the APP reservoir by Dennis Solkoe (plasmid 30145). The plasmid was amplified by DH5alpha strain in LB medium containing 50 μg/ml of ampicillin. The plasmid was purified by using a Qiagen plasmid mini kit (Cat #12143) and digested with EcoRV restriction enzyme and confirmed. The human neuroblastoma cell line SHYSY5Y used in the present in vitro experiments was cultured in DMEM medium containing 10% fetal bovine serum and 1% penicillin-streptomycin antibiotic (stock solutions concentrations of 10,000 U and 10,000 μg/ml, respectively)).\nSH-SY5Y cells and HT-22 cells were inoculated into a culture flask containing the medium, and cultured until reaching the confluency of 70% to 75%. The pCAX vector with the APPswe/ind gene was transfected for 48 hours by using Lipofectamine 3000 (Life technologies) according to the manufacturers instructions.\nAPPswe/ind transfected SH-SY5Y cells were treated with novel peptide for 4 hours, followed by 3-[4, 5-dimethylthiazol-2-yl]-2,5-diphenyl tetrazolium bromide (MTT) analysis and Western blot analysis.\nMTT assay was performed to measure the survival rate of cells treated with various concentrations of adiponectin receptor-activating novel peptide (5AA1). The cells were inoculated at 1×10^5 cells/well in a 96-well plate containing 200 μl of Dulbecco's modified Eagle's medium (DMEM). After 70% of cell confluence, SH-SY5Y cells were treated with 0.5 μM, 1 μM, 5 μM, 10 μM, and 20 μM of adiponectin receptor-activating novel peptide, and then cultured for 4 hours. At the end of the treatment, MTT (5 mg/ml in PBS) was added to each well, and the plate was cultured at a temperature of 37° C. for 4 hours. The formazan dissolved in dimethyl sulfoxide (DMSO) was added to the well and the plate was stirred in the agitator for 10 to 20 minutes. Then, the absorbance was measured at a wavelength of 550 nm to 570 nm (L1) and 620 nm to 650 nm (L2) by using a scanning microplate reader.\nThe L2 absorbance was measured for cell residuals and well imperfections, and the corrected absorbance (Abs.=L1−L2) of each well was calculated from 100× the absorbance of treated well/absorbance of the control well, and was used to measure the cell viability."}, "APP/PS1 model group": {"system": "APP/PS1 model group", "assay": "In vivo electrophysiology and LTP analysis (hippocampus slice)", "design": "species or system mice", "conditions": "hippocampus slice CA1, after pairing stimuli, treated APP/PS1 model group", "description": "A hippocampus slice was prepared from adult mice to examine the CA1 circuit from the cross-sectional schaffer collateral (SC) input in the hippocampus slice ([…] thickness). Briefly, after anesthetizing the mice with isoflurane, the brains were quickly cooled by transcardiac perfusion with ice-cold cross-cerebrospinal fluid (CSF). After the brain was removed, the brains were stored in ice-cold sucrose-artificial CSF. A coronal section was cultured in artificial CSF at a temperature of 35° C. for 30 minutes, and cultured in artificial CSF at room temperature (23° C. to 25° C.) for 1 to 4 hours before being transferred to the recording chamber. […]\nLTP experiments were performed at 27° C. to 29° C. […] Stimulation was applied to the shaper-side branch (SC) pathway using a concentrated bipolar electrode located at […] from the soma of the recorded cells. […] In the LTP experiment, baseline EPSCs were measured for 3 min before applying the pairing stimuli (2 Hz, 2-minute stimulation, and post-synaptic depolarization to 0 mV). […]"}}, "data": [{"substance": "RGPCG (adiponectin receptor-activating peptide) [5AA1]", "values": [{"measurement": "cell viability", "setting": "[1]", "result": "concentration-dependently increased"}, {"measurement": "level of EPSC enhancement (LTP)", "setting": "APP/PS1 model group", "result": "almost the same as that of the normal group"}]}]}
